≈ marks a conversion by molar mass, not a printed value.
Assays:
[1] = Inhibition of LpxC in Acinetobacter baumannii focus ID 961025
[2] = test system: Pseudomonas aeruginosa; test: Antibacterial activity against Pseudomonas aeruginosa isolate 44 ATCC 27853; type: functional
[3] = biological target: T1, UDP-3-O-acyl-N-acetylglucosamine deacetylase (Pseudomonas aeruginosa (strain ATCC 15692 / PAO1 / 1C / PRS 101 / LMG12228), UniProt P47205); test: Inhibition of LpxC in Pseudomonas aeruginosa isolate 44 ATCC 27853
T1 sequence (P47205 whole entry): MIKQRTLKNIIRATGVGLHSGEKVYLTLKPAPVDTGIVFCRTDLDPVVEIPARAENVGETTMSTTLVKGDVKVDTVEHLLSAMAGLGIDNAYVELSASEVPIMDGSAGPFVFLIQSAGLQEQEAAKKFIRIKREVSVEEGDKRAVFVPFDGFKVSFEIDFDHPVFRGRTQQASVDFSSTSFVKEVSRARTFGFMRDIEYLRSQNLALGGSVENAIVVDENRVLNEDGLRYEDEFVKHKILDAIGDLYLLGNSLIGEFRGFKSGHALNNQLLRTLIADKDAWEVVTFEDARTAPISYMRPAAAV

[4] = test system: Acinetobacter baumannii; test: Antibacterial activity against Acinetobacter baumannii focus ID 961025; type: functional
[5] = test system: Escherichia coli; test: Antibacterial activity against Escherichia coli isolate 35 ATCC 25922; type: functional
[6] = Inhibition of LpxC in Klebsiella pneumoniae isolate 21 ATCC 4352
[7] = test system: Klebsiella pneumoniae; test: Antibacterial activity against Klebsiella pneumoniae isolate 21 ATCC 4352; type: functional
[8] = biological target: T2, UDP-3-O-acyl-N-acetylglucosamine deacetylase (Escherichia coli K-12, UniProt P0A725); test: Inhibition of LpxC in Escherichia coli isolate 35 ATCC 25922; parameters: species or system Escherichia coli ATCC 25922
T2 sequence (P0A725 whole entry): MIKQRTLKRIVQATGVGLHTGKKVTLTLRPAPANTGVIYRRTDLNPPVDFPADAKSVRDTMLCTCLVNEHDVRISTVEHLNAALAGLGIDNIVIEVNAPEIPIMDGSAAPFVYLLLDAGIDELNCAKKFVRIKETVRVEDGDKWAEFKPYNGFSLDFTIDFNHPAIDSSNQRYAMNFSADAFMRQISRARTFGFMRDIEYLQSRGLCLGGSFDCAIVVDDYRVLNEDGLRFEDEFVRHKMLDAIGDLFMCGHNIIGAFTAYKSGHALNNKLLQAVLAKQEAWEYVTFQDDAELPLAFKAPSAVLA

[9] = test system: Pseudomonas aeruginosa; test: Antibacterial activity against Pseudomonas aeruginosa isolate 839 harboring mexAB-oprM deletion mutant; type: functional

SMILES	IC50 [1] [nM]	MIC [2] [µg/mL]	IC50 [3] [nM]	MIC [4] [µg/mL]	MIC [5] [µg/mL]	IC50 [6] [nM]	MIC [7] [µg/mL]	IC50 [8] [nM]	MIC [9] [µg/mL]
CCC(N[C@H](C(=O)NO)[C@@H](C)O)c1ccc(C#Cc2ccccc2)cc1 (some centres undefined)	566	> 64	214	> 64	4 (≈ 11.3 µM)	120	2 (≈ 5.67 µM)	215	–
C[C@@H](O)[C@H](NC1CCc2cc(C#Cc3ccc(CN4CCOCC4)cc3)ccc21)C(=O)NO (some centres undefined)	382	8 (≈ 17.8 µM)	4	> 64	0.25 (≈ 0.556 µM)	2	0.125 (≈ 0.278 µM)	2	–
C[C@@H](O)[C@H](N[C@H]1CCc2cc(C#Cc3ccc(CN4CC(O)C4)cc3)ccc21)C(=O)NO	–	4 (≈ 9.18 µM)	63	–	4 (≈ 9.18 µM)	–	0.125 (≈ 0.287 µM)	127	0.5 (≈ 1.15 µM)
C[C@@H](O)[C@H](N[C@H]1CCc2cc(C#Cc3ccc(CN4CCN(CCO)CC4)cc3)ccc21)C(=O)NO	–	4 (≈ 8.12 µM)	14	–	2 (≈ 4.06 µM)	21	< 0.125	20	1 (≈ 2.03 µM)
C[C@@H](O)[C@H](N[C@H]1CCc2cc(C#Cc3ccc(CN4CCN(C)CC4)cc3)ccc21)C(=O)NO	–	8 (≈ 17.3 µM)	30	–	0.25 (≈ 0.54 µM)	32	0.125 (≈ 0.27 µM)	53	1 (≈ 2.16 µM)
C[C@@H](O)[C@H](N[C@H]1CCc2cc(C#Cc3ccc(CN4CC[C@@H](O)C4)cc3)ccc21)C(=O)NO	–	8 (≈ 17.8 µM)	26	–	2 (≈ 4.45 µM)	38	0.5 (≈ 1.11 µM)	51	1 (≈ 2.22 µM)
C[C@@H](O)[C@H](NC1CCN(C)c2cc(C#Cc3ccc(CN4CCOCC4)cc3)ccc21)C(=O)NO (some centres undefined)	331	> 32	18	> 32	2 (≈ 4.18 µM)	2	0.125 (≈ 0.261 µM)	2	–
C[C@@H](O)[C@H](NC1CN(C)Cc2cc(C#Cc3ccccc3)ccc21)C(=O)NO (some centres undefined)	310	> 128	108	> 128	2 (≈ 5.27 µM)	18	0.5 (≈ 1.32 µM)	28	–
C[C@@H](O)[C@H](N[C@@H]1CCc2cc(C#Cc3ccc(CN4CCOCC4)cc3)ccc21)C(=O)NO	1990	128 (≈ 285 µM)	8	64 (≈ 142 µM)	0.5 (≈ 1.11 µM)	7	0.125 (≈ 0.278 µM)	3	–
C[C@@H](O)[C@H](NC1CCCc2cc(C#Cc3ccc(CN4CCOCC4)cc3)ccc21)C(=O)NO (some centres undefined)	80	32 (≈ 69 µM)	2	128 (≈ 276 µM)	0.25 (≈ 0.539 µM)	0.2	< 0.125	0.3	–
CCCC(N[C@H](C(=O)NO)[C@@H](C)O)c1ccc(C#Cc2ccccc2)cc1 (some centres undefined)	273	64 (≈ 175 µM)	50	32 (≈ 87.3 µM)	2 (≈ 5.46 µM)	53	0.25 (≈ 0.682 µM)	60	–
Cc1nccn1Cc1ccc(C#Cc2ccc3c(c2)CC[C@@H]3N[C@H](C(=O)NO)[C@@H](C)O)cc1	–	8 (≈ 18 µM)	4	–	0.25 (≈ 0.562 µM)	2	0.06 (≈ 0.135 µM)	1	0.25 (≈ 0.562 µM)
C[C@@H](O)[C@H](NC1CCOc2cc(C#Cc3ccccc3)ccc21)C(=O)NO (some centres undefined)	36	128 (≈ 349 µM)	13	32 (≈ 87.3 µM)	2 (≈ 5.46 µM)	8	< 0.125	11	–
C[C@@H](O)[C@H](NC1CCCCc2cc(C#Cc3ccccc3)ccc21)C(=O)NO (some centres undefined)	1160	> 128	333	> 128	16 (≈ 42.3 µM)	72	2 (≈ 5.28 µM)	109	–
C[C@@H](O)[C@H](N[C@H]1CCc2cc(C#Cc3ccc(CN4CCCCC4)cc3)ccc21)C(=O)NO	–	16 (≈ 35.7 µM)	10	–	0.5 (≈ 1.12 µM)	5	0.5 (≈ 1.12 µM)	10	2 (≈ 4.47 µM)
C[C@@H](O)[C@H](NC1COCc2cc(C#Cc3ccc(CN4CCOCC4)cc3)ccc21)C(=O)NO (some centres undefined)	25	64 (≈ 137 µM)	6	64 (≈ 137 µM)	0.25 (≈ 0.537 µM)	1	< 0.125	1	–
CNCCOCc1ccc(C#Cc2ccc3c(c2)CC[C@@H]3N[C@H](C(=O)NO)[C@@H](C)O)cc1	–	16 (≈ 36.6 µM)	6	–	4 (≈ 9.14 µM)	11	0.25 (≈ 0.571 µM)	15	2 (≈ 4.57 µM)
CC(N[C@H](C(=O)NO)[C@@H](C)O)c1ccc(C#Cc2ccccc2)cc1 (some centres undefined)	160	> 64	72	64 (≈ 189 µM)	4 (≈ 11.8 µM)	64	1 (≈ 2.96 µM)	96	–
C[C@@H](O)[C@H](NC1CCN(C)c2cc(C#Cc3ccccc3)ccc21)C(=O)NO (some centres undefined)	124	> 128	15	> 128	8 (≈ 21.1 µM)	4	1 (≈ 2.64 µM)	2	–
C[C@@H](O)[C@H](NC1CCOc2cc(C#Cc3ccc(CN4CCOCC4)cc3)ccc21)C(=O)NO (some centres undefined)	83	16 (≈ 34.4 µM)	6	64 (≈ 137 µM)	2 (≈ 4.3 µM)	2	< 0.125	1	–
C[C@@H](O)[C@H](NC1CCc2cc(C#Cc3ccccc3)ccc21)C(=O)NO (some centres undefined)	165	32 (≈ 91.3 µM)	20	16 (≈ 45.7 µM)	0.5 (≈ 1.43 µM)	5	0.125 (≈ 0.357 µM)	7	–
COC1CCN(Cc2ccc(C#Cc3ccc4c(c3)CC[C@@H]4N[C@H](C(=O)NO)[C@@H](C)O)cc2)CC1	–	8 (≈ 16.8 µM)	3	–	0.5 (≈ 1.05 µM)	6	0.06 (≈ 0.126 µM)	5	1 (≈ 2.09 µM)
C[C@@H](O)[C@H](NC1CCCc2cc(C#Cc3ccccc3)ccc21)C(=O)NO (some centres undefined)	40	32 (≈ 87.8 µM)	5	16 (≈ 43.9 µM)	1 (≈ 2.74 µM)	0.2	0.25 (≈ 0.686 µM)	1	–
C[C@@H](O)[C@H](NC1COCc2cc(C#Cc3ccccc3)ccc21)C(=O)NO (some centres undefined)	49	64 (≈ 175 µM)	14	32 (≈ 87.3 µM)	0.25 (≈ 0.682 µM)	1	< 0.125	2	–
CCCCC(N[C@H](C(=O)NO)[C@@H](C)O)c1ccc(C#Cc2ccccc2)cc1 (some centres undefined)	1460	> 128	616	> 128	64 (≈ 168 µM)	724	2 (≈ 5.26 µM)	534	–
C[C@@H](O)[C@H](NCc1ccc(C#Cc2ccccc2)cc1)C(=O)NO	17	> 128	20	32 (≈ 98.6 µM)	4 (≈ 12.3 µM)	48	0.5 (≈ 1.54 µM)	67	–
